pIC50: −log10 of the molar value.

Assay [1] deals with NCI-H1373 lung cancer cells. Briefly: Inhibition of cancer cell growth in NCI-H1373 cells (FIG. 2). It is filed as cell-based, human.
In assay [2] the test system is CT26 mouse colon cancer cells. In words: Induction of interferon-beta levels in CT26 cells in the presence of STING agonist DMXAA (FIG. 3). It is filed as cell-based.
The subject of assay [3] is RAW264.7 mouse macrophages. In words: Induction of interferon-beta levels in RAW264.7 macrophages in the presence of STING agonist DMXAA (FIG. 3). The assay is classed as cell-based.
The next assay has as its target TIPARP (PARP7) (Homo sapiens (Human), UniProt Q7Z3E1). Briefly: Enzymatic assay for inhibition of PARP7: displacement of biotinylated Probe A (TR-FRET). The assay is classed as binding. To be noted: TR-FRET displacement of Probe A from TIPARP. As for the experimental part: 20 nL of a dose response curve of each test compound was spotted in black 384-well polystyrene proxiplates (Perkin Elmer) using a Mosquito (TTP Labtech). […] Reactions were incubated at 25° C. for an additional 30 min, then read on an Envision plate reader equipped with a LANCE/DELFIA top mirror (Perkin Elmer) using excitation of 320 nm and emission of 615 nm and […] with a 90 μs delay. The ratio of the 665/615 nm emission were calculated for each well to determine the amount of complex of TIPARP and Probe A in each well. […] The Hill Coefficient is normally allowed to float but may also be fixed at 1 in a 3-parameter fit. Y is the % inhibition and X is the compound concentration.
(In general: In TR-FRET formats the signal depends on donor and acceptor labels being close together.)

For assay [4], the system named is panel of cancer cell lines. Briefly: Inhibition of cancer cell growth, 72 hrs (CellTiter-Glo), GI50, Table A-2. The assay is classed as cell-based. On the procedure: (§1) Example C: Inhibition of Cancer Cell Growth by Treatment with PARP7 Inhibitors
(§2) Table A-2 and Table A-3 (below) represents the concentration that causes 50% growth inhibition (GI50) in a panel of cancer cell lines with Compound 18B and Compound 561. Cells were plated into 384-well plates at a pre-specified density in fetal bovine serum-containing media. Cells were treated with compound or vehicle (DMSO) 24 hrs later, and a day zero plate was collected for analysis. Test compound plates were incubated continuously for 72 hrs (Table A-2) or 144 hours (Table A-3) cell growth was assessed using a luminescent cell viability assay (CellTiter-Glo, Promega). The GI50 was determined by correcting for the cell count at time zero (time of treatment) and plotting data as percent growth relative to vehicle-treated cells.
A general note: ATP-based viability assays read luminescence as a measure of living cells.

The subject of assay [5] is CT26 cells. Briefly: Proliferation of CT26 cells in the presence of PARP7 inhibitors (CellTiter-Glo). The settings on record: 4 days incubation. It is filed as cell-based, mouse. As for the experimental part:
Example F: Proliferation of CT26 Cells in the Presence of PARP7 Inhibitors
CT26 cells were plated in a 384-well plate and allowed to adhere for several hours before being treated with Compound 18B. Cells were incubated with compound for 4 days prior to processing with CellTiter-Glo reagent (Promega). Luminescence was measured with a Perkin Elmer Envision and percent inhibition was calculated using the vehicle (DMSO) average as 0% inhibition. Non-linear regression analysis was performed using a 4 parameter (variable slope) fit in GraphPad Prism.

Assay [6] has as its system human NCI-H1373 lung cancer xenograft. In words: Tumor growth in human NCI-H1373 lung cancer xenograft (FIG. 7A). The assay is classed as in vivo. The settings on record: once daily administration. A general note: A xenograft is tissue or cells of one species grown in another, often human tumour cells in immunodeficient mice.
Assay [7] deals with murine CT26 colon cancer syngeneic model. Briefly: Tumor growth in murine CT26 colon cancer syngeneic model (FIG. 6A-C, 7B). To be noted: once or twice daily administration, FIG. 7B. It is filed as in vivo, mouse.
The subject of assay [8] is panel of cancer cell lines. In words: Inhibition of cancer cell growth, 144 hours (CellTiter-Glo), GI50, Table A-3. The assay is classed as cell-based. The settings on record: MDA-MIB-468 cell line, breast adenocarcinoma. As for the experimental part:
as §1, §2

For the next assay, the system named is NCI-H1373 cells. In words: Inhibition of tumor growth by oral dosing, human NCI-H1373 lung cancer xenograft. It is filed as in vivo, SCID mice. From the text: (§3) Example H: Inhibition of Tumor Growth by Oral Dosing with a PARP7 Inhibitor
(§4) The effect of Compound 561 on tumor growth was studied in a human NCI-H1373 lung cancer xenograft and a murine CT26 colon cancer syngeneic model.
For the NCI-H1373 study, SCID mice were inoculated subcutaneously in the right flank with NCI-H1373 cells for tumor development. After 5 days of tumor growth, mice with 89-148 mm^3 tumors were randomized into treatment groups with mean tumor volumes of 121 mm^3. The treatments were started from the next day post randomization (defined randomization day as day 0) and were treated with vehicle (50% Labrasol) or Compound 561 (62.5, 125, 250, and 500 mg/kg) once a day for 28 days by oral gavage. Tumor volumes were determined by manual calipers every 2-3 days. Mean tumor volume and SEM are plotted. QD: once a day; PO: per oral administration. Statistical significance is calculated using two-way ANOVA followed by Bonferroni post-tests in which the treatment groups were compared to vehicle control (****P<0.0001).

Assay [9] has as its system CT26 cells. In words: Inhibition of tumor growth by oral dosing, murine CT26 colon cancer syngeneic model. It is filed as in vivo. The settings on record: BALB/c mice, 125-500 mg/kg BID or 500 mg/kg QD, 21 days.
Text: as §3, §4
For the CT26 study, BALB/c mice were inoculated subcutaneously in the right flank with CT26 cells for tumor development. After 5 days of cell inoculation, mice with 36-79 mm^3 tumors were randomized into treatment groups with mean tumor volumes of 54 mm^3. The treatments were started from the next day post randomization (defined randomization day as day 0) and were treated with vehicle (25 or 50% Labrasol) or Compound 561 BID (2 times a day every 12 hours) at doses ranging from 125-500 mg/kg or QD (once a day) at 500 mg/kg for 21 days by oral gavage or needle subcutaneously. Tumor volumes were determined by manual calipers every 2-3 days. Mean tumor volume and SEM are plotted. BID: twice a day; PO: per oral administration; QD: once a day; SC: per subcutaneous administration. The first two doses for vehicle and Compound 561 500 mg/kg in the QD groups were delivered by subcutaneous injection. […] Statistical significance is calculated using two-way ANOVA followed by Bonferroni post-tests in which the treatment groups were compared to vehicle control (****P<0.0001).

Chain of TIPARP (PARP7) (Q7Z3E1 whole entry): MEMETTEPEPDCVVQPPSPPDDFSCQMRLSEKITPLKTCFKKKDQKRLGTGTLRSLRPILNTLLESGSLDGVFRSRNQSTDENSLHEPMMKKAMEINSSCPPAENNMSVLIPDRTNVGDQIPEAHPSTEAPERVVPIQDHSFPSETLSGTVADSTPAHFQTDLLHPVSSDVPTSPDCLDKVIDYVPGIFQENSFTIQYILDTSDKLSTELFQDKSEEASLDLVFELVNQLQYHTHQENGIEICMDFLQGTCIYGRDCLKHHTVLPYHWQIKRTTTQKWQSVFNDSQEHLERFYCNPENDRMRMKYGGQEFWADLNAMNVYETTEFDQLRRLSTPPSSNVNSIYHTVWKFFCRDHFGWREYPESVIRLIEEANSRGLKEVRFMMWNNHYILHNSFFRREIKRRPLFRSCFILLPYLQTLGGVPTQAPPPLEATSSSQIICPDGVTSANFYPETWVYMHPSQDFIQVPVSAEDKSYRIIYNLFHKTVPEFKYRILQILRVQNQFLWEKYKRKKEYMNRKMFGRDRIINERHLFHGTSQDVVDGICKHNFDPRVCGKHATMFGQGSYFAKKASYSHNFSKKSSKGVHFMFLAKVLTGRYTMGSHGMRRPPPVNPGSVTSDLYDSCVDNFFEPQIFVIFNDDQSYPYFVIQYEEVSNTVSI

In general, pIC50 refers to the IC50 on a negative log10 scale, so that one unit is a factor of ten. Low values mean a large IC50, high ones a small IC50. In general, GI50 refers to the concentration giving 50% growth inhibition. Low readings indicate greater sensitivity of the cells, high ones lower sensitivity of the cells. Consider `N#Cc1ccc(N2CCN(C(=O)c3cccc(OC[C@@H]4c5ccccc5CN4c4cn[nH]c(=O)c4C(F)(F)F)c3)CC2)nc1` [Example 18B, 6-[4-[(3-[[(1S)-2-[6-Oxo-5-(trifluoromethyl)-1,6-dihydropyridazin-4-yl]-2,3-dihydro-1H-isoindol-1-yl]methoxy]phenyl)carbonyl]piperazin-1-yl]pyridine-3-carbonitrile], for which, in assay [1], the “growth of NCI-H1373 lung cancer cells” value is listed as “dose-dependent decrease in growth”. Moreover, the “interferon-beta (IFN-β) levels” value in assay [2] and in assay [3] was “induction of interferon-beta (IFN-β) levels” in each case. This compound also gave a pIC50 on TIPARP (PARP7) of over 7.00. For the same compound, the GI50 in assay [4] (72 h, GSS cell line, stomach adenocarcinoma) lay within 100 to 1000 nM; in assay [4] (LUDLU-1, 72 h, LUDLU-1 cell line, lung squamous cell carcinoma) it was 100 to 1000 nM. Besides, in the assay on CT26 cells [5], the “proliferation in CT26 cells in vitro” value was “do not inhibit proliferation”.

As for `C[C@@H](COCCC(=O)N1CCN(c2ncc(C(F)(F)F)cn2)CC1)Nc1cn[nH]c(=O)c1C(F)(F)F` [Example 561, 5-[[(2S)-1-(3-oxo-3-[4-[5-(trifluoromethyl)pyrimidin-2-yl]piperazin-1-yl]propoxy)propan-2-yl]amino]-4-(trifluoromethyl)-2,3-dihydropyridazin-3-one], the tumor growth entry in assay [6] is “significantly reduces tumor growth”; in [7], “significantly reduces tumor growth”; in the assay with NCI-H1373 cells (SCID mice, once daily oral gavage, 28 days), “significantly reduces tumor growth”; in the assay with CT26 cells [9] it was “significantly reduces tumor growth”. This compound came in with a GI50 in assay [8] of at least 1000 nM. Moreover, in the assay with NCI-H1373 cells (62.5 to 500 mg/kg once a day for 28 days, all dose levels), the tumor regression entry is reported as “complete tumor regression”.

The values are drawn from patent publication US10870641B2, “Pyridazinones as PARP7 inhibitors” (Ribon Therapeutics Inc., priority 2018, dated 2020).
